# Results: PMC5190008, “BO-1055, a novel DNA cross-linking agent with remarkable low myelotoxicity shows potent activity in sarcoma models” (Oncotarget, 2016)
# What was measured:
# CCRF-CEM/Taxol cells = system: CCRF-CEM/Taxol cells; set-up: method as in PMID 21106377; conditions: CCRF-CEM/Taxol ref 6; cited from earlier work
# A673 spheroids = experiment: Spheroid assay in 3D culture (methylcellulose); type: cell-based, human
# Experimental: A673 cells were seeded on flat bottom non attachment 24 well plates (1000 cells/well) in triplicate using 1.2 % methylcellulose (Dow Chemical, Waterloo, NY) mixed with 20% FCS and specified concentrations of BO-1055 or 4HC as shown in Figure 1D. Samples were incubated at 37°C / 5 % CO2 and colonies were scored 14 days after plating.
# [1] = system: Ewing sarcoma patient samples; experiment: Alamar Blue cell proliferation assay; type: cell-based, human
# From the text: Ewing sarcoma cell line A673, Prostate (PC-3, LNCaP, 22RV/HL2), colon (HCT-116), breast (MCF-7, MX-1), small cell lung cancer (H526) and renal (A-498, 786-0) cancer cell lines were purchased from American Type Culture Collection (ATCC, Manassas, VA). Dr. Marc Ladanyi (Department of Pathology, MSKCC) kindly provided the following cell lines: CHLA-9, TC32, RMS559 and TE-381. Dr. Gary Schwartz kindly provided the following osteosarcoma cell lines: OSA, U20S and SAOS. Dr. Constantine Markides, (CHRISTUS Stehlin Foundation for Cancer Research, TX) kindly provided Ewing sarcoma and desmoplastic small round cell tumor (DSRCT) cell lines, including CAR, ZUC, ORA, BER and BOD. Early cultures derived from Ewing sarcoma patient samples, including IARC-EW1, SIM-1 were obtained from the MSKCC monoclonal antibody core facility. […]
# AlamarBlue® assay (Invitrogen, Carlsbad, CA, USA) was performed to evaluate anti-proliferative activity of the drugs in cell lines and primary cells. […] The absorbance was measured using the Synergy H1 hybrid multi-mode microplate reader (BioTek, USA). The drug effect was quantified as the percentage of control absorbance at 540 nm and 585 nm. Optical density was determined for 3 replicates per treatment condition and cell proliferation in drug-treated cells was normalized to their respective controls. […]
# γH2AX in A673 cells = experiment: γ-H2AX expression by flow cytometry; type: cell-based, human; conditions: A673 compared to hMSC and cord blood CD34+ cells, 3h
# Experimental: Staining of γ-H2AX antigen was carried out following the manufacturer's protocol. Briefly, human sarcoma cells and human mesenchymal stem cells were treated with various concentrations of BO-1055 at 37°C. At 3h, the cultures were washed with 1 ml of cold PBS three times, detached with 0.05% trypsin, and cells were pelleted. The pelleted cells were resuspended with 0.2 ml Cytofix/Cytoperm solution (BD Bioscience), incubated at 4°C for 20 minutes, and then washed with 1 ml cold Perm/Wash solution (BD Bioscience) three times. After anti-human γ-H2AX antibody (BD Bioscience) staining, the specimens were subjected to flow cytometric analysis via a Calibur flow instrument (BD Bioscience).
smiles,measurement,setting,value
CN(C)CCNC(=O)c1cccc(NC(=O)Nc2ccc(N(CCCl)CCCl)cc2)c1 [BO-1055],resistance of CCRF-CEM/Taxol cells,CCRF-CEM/Taxol cells,9.4 fold
same,concentration giving complete inhibition of spheroids,"A673 spheroids; A673 spheroids in methylcellulose, scored 14 days after plating",0.5 µM
same,fold lower concentration inhibiting A673 spheroids compared to 4-HC,A673 spheroids; BO-1055 vs 4-HC,10 fold
same,IC50,[1],submicromolar
same,γH2AX level,γH2AX in A673 cells,significantly elevated
